# Experimental data published in patent publication US11116767B2, “3,5-disubstituted pyrazoles useful as checkpoint kinase 1 (Chk1) inhibitors, and their preparations and applications” (PHARMAENGINE, INC., priority 2016, dated 2021).
# pIC50: −log10 of the molar value.
# Key:
# [1] = tested on: HT-29; assay: Cancer cell growth inhibition assay (CellTiter-Glo), HT-29; format: cell-based, Human; details: Homo sapiens, HT-29; 72 hours, cellular ATP content; read-out: HT-29 anti cell proliferation activity (grade)
# [2] = tested on: HT-29 tumor xenograft; assay: HT-29 xenograft model, alone or in combination with CPT-11; format: in vivo, Balb/c nude mice; details: for % T/C value: 40 mg/kg, IV
# Experimental: Female Balb/c nude mice at 7-8 weeks of age (Body weights between 17-18g) were purchased from Hunan SJA Laboratory Animal Co., Ltd. HT-29 cells were cultured in DMEM culture medium containing 10% fetal bovine serum and LoVo cells were cultured in RPMI 1640 culture medium containing 10% fetal bovine serum. The cells were harvested and washed with serum free culture medium. Finally, the cells were suspended at a cell density of […] in serum free culture medium for implantation. 5 million cells per animal suspended in 0.1 ml serum free culture medium and 1.1 matrigel were injected into the right flank of the animals after a one, week acclimation period. When average tumor volume reached acceptable tumor size (100-200 mm^3) and shape, the animals were randomly assigned into treatment groups.
# In HT-29 tumor xenograft model, the animals were treated with a single compound, a ChK1 inhibitor or CPT-11, or a combination with CPT11. […] The animals well tolerated each treatment in the HT-29 colon cancer in nude mice model.
# [3] = biological target: T1, Chk1 (Homo sapiens, UniProt O14757); assay: biochemical; details: ADP-Glo; read-out: Chk1 in vitro enzyme activity (grade)
# T1 construct: purchased BPS 40039
# T1 sequence (O14757 1-476): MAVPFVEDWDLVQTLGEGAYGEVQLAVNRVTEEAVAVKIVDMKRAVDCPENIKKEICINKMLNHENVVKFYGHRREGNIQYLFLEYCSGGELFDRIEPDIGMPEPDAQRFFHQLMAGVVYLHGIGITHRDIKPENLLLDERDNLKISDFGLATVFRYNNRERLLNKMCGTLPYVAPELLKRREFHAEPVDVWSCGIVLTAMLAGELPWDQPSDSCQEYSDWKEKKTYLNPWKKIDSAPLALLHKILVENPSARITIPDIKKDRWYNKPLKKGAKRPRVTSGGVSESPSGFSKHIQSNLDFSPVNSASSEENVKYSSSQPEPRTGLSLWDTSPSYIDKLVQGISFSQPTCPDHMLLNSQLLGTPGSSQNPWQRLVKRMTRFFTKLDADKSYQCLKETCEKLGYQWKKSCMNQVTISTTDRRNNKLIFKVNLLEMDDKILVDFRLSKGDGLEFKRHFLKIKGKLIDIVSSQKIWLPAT
compound,measurement,setting,value
"COc1cc(F)cc(OCCCN)c1-c1cc(Nc2cnc(C#N)cn2)n[nH]1 [Compound 3, 5-(5-(2-(3-Aminopropoxy)-4-fluoro-6-methoxyphenyl)-1H-pyrazol-3-ylamino)pyrazine-2-carbonitrile]",pIC50,[1],7.30 to 8.00
same,"efficacy compared with LY-2606368, alone or with CPT-11",[2]; 40 mg/kg IV twice a week vs LY-2606368 15 mg/kg IV twice a week,more efficacious than the reference LY-2606368
same,% T/C value,"[2]; twice a week plus CPT-11 (50 mg/kg, IV, once per week)",−9%
same,% T/C value,"[2]; alone, twice a week",26%
same,effect on anti-tumor growth activity of CPT11,[2]; combination with CPT11,enhanced anti-tumor growth activity of CPT11
same,pIC50,[3],≥ 9.00
